Reference: patent US20050075345A1, “Novel inhibitor compounds specific of secreted non-pancreatic human a2phospholipase of group II” (Yang Ji Chemical Company Ltd., priority 2001, published 2005)

Key:
[1] = tested on: ear edema induced by croton oil; assay: Croton oil-induced ear edema test, local anti-inflammatory effect; format: in vivo, male ICR mice; conditions: mice, topical, 5 hours
Method: A-2: As animals, male ICR mice weighing 25 g were used.
A-4: To evaluate the in vivo anti-inflammatory effect of the inventive PMS compounds as listed above, the ear edema test was used as an acute inflammatory experimental model.
After inducing edema on one ear of mice by the application of croton oil, the sample of each of the PMS compounds as described above was dissolved in 80% chloroform. […] The other ear was applied only with the solvent, i.e., 80% chloroform.
After 5 hours of the initiation of the experiment, the ear tissue at the level of edema was collected by a gimlet from the skin, and the tissue collected was compared with one collected from the control part of the ear by a gimlet, to calculate the percent inhibition.
A-5: To calculate the statistical significance, the results obtained in each of the […] and the […] were evaluated by Student's t-test.

[2] = target: T1, human recombinant PLA2 (group II) (Homo sapiens, UniProt P14555); assay: Fluorometric anti-PLA2 assay, human recombinant PLA2 (group II); format: biochemical; conditions: measured for fluorescence with human recombinant PLA2 (group II); read-out: Anti-PLA2 activity IC50 HPLA2
T1 sequence (P14555 21-144): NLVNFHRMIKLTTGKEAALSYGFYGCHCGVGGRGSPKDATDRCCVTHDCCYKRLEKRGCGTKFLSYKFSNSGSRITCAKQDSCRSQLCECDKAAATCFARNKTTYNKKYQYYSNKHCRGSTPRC
Method: (§1) Phospholipase A2 hydrolyzes an ester linkage at the sn-2 position of glycerophospholipid and liberates fatty acids and lysophospholipids. The in vitro action of particular compounds was evaluated by the analysis of fatty acids according to the fluorometric method described in Radvanyi et al., Anal. Biochem. 1989, 177. 103-109, and by the analysis of lysophospholipids according to the UV spectrophotometric method described in Reynolds et al., Anal. Biochem. 1992, 204, 190-197.
(§2) Enzymes used were two secretory enzymes of group II (human recombinant PLA2, and PLA2 basic subunit isolated from Crotalus durissus terrificus), and a secretory enzyme of porcine pancreatic (group I) PLA2.
(§3) Regarding substrates, palmitoyl-2-(10-pyrenyl decanoyl)-sn-glycero-3-phosphatidylglycerolic acid as a fluorescent substrate was used in the fluorometric method, and the lithium salt of 1,2-bis-(dihexanylthio)-dideoxy-rac-glycero-3-phosphorylglycerol was used in the UV spectrophotometric method.
(§4) The fluorometric analysis was performed using a Perkin Elmer LS50 luminescence spectrometer in a unit dosage polystyrene cell having a size of 1 cm. The exact concentration of the fluorescent substrate was determined by UV Unicam spectrometry in a quartz cell.
(§5) PLA2 is an enzyme that hydrolyzes an ester linkage at the sn-2 position of phospholipid. […] After hydrolysis with the enzyme, fluorescence emitted by the liberated fatty acid (pyrenyl decanoic acid) complex with bovine serum albumin (BSA) is increased, and strong fluorescence emission is observed at 378 and 398 nm. The principle of the analysis is to measure a difference in fluorescence at 398 nm in order to examine the production of fatty acids liberated for a given period of time, thus determining the PLA2 activity.
(§6) Measurement of the enzymatic activity was performed in a cell containing: 960 μl of Tris buffer; 50 mM HCl (pH 7.5); 0.5 M NaCl, 1 mM EGTA; and 1 μl substrate. This mixture was stirred under reflux for one minute to permit the formation of vesicles of substrate, and then, 10 μl of 10% SAB, 10 μl of solvent (ethanol or DMSO) or inhibitor solution, 10 μl of PLA2 to a given concentration and finally 10 μl of 1 M calcium chloride (CaCl2) for initiating the activity were successively added to the mixture under stirring.
(§7) Good conditions of measurement of the enzymatic activity include saturation of the enzyme, and thus, initial concentrations used are as follows: (i) human recombinant PLA2: 0.1 μl/ml; (ii) porcine pancreatic PLA2: 0.6 μl/ml; and (iii) Crotalus durissus terrificus (CB) PLA2: 0.05 μl/ml. Mother solution containing the inhibitor was prepared at an initial concentration of 10^−2 M.
(§8) The enzymatic activity is shown by a curve of which the original slope permits to calculate the initial velocity of the reaction. The following equation permits to calculate the enzymatic activity (A; μmol) of fatty acids liberated per minute. In the equation, S0 represents the slope of a curve in the absence of calcium (control), S the slope in the presence of calcium, V the volume (μl) of the substrate solution, and Fmax the signal of maximum fluorescence obtained at the end of the enzymatic reaction: [formula]
(§9) The residual activity in the presence of an inhibitor was evaluated by slopes obtained in the absence and presence of an inhibitor, according to the following equation: Residual activity (%)=(S−S0) in the presence of inhibitor/(S−S0) in the absence of inhibitor
(§10) Values obtained as a logarithmic function of the inhibitor concentrations used permit to determine the IC50 value, i.e., the inhibitor concentration required to cause 50% reduction of the enzymatic activity. The lower the IC50 value, the higher the inhibitory activity of a compound tested.

[3] = tested on: PLA2 of Crotalus durissus terrificus (group II); assay: Fluorometric anti-PLA2 assay, Crotalus durissus terrificus PLA2 (CB); format: biochemical; conditions: fluorometric method, read-out: Anti-PLA2 activity IC50 CB Fluo
Method: as §1, §2, §3, §4
as §5, with “activity. […]” for “activity.”
The residual activity in the presence of an inhibitor was evaluated by slopes obtained in the absence and presence of an inhibitor, according to the following equation: Residual activity (%)=(S−S0) in the presence of inhibitor/(S−S0) in the absence of inhibitor […]

[4] = tested on: PLA2 of Crotalus durissus terrificus (group II); assay: UV spectrophotometric anti-PLA2 assay, Crotalus durissus terrificus PLA2 (CB); format: biochemical; conditions: UV spectrophotometric method, read-out: Anti-PLA2 activity IC50 CB Spectro
Method: as §1, §2, §3
The UV spectrophotometric analysis was performed on an ELx 808 Ultra Micro Plate Reader apparatus (96-well plate).
Lysothiophospholipid (LTPL) liberated by the lypolytic action of PLA2 in the presence of calcium reacts with dithionitrobenzoic acid (DTNB) present in medium to form an LTPL-TNB complex and an TNB-anion which induces the yellowing of reaction medium.
The measurement of enzymatic activity is performed in a multiple well plate of which each well contains 190 μl of 1× buffer, 2 μl of 10 mM DTNB, […] of 20 mM substrate, 2 μl of solvent or inhibitor solution, and 2 μl of PLA2 at a given concentration. The plate was stirred and 2 μl of 1 M calcium chloride was added to initiate the enzymatic reaction. Substrate was used at a lower concentration than micellar critical concentration (about 1 mM) in a monomeric form, and the ratio of substrate to enzyme was respected. […]
(§11) Good conditions of measurement include saturation of enzyme. […] It calculated directly the initial velocity of the reaction. […]
(§12) 15 readings for each well (3 wells per concentration) were performed at intervals of 3 seconds.

[5] = target: T2, porcine pancreatic PLA2 (group I) (Sus scrofa, UniProt P00592); assay: Fluorometric anti-PLA2 assay, porcine pancreatic PLA2 (group I); format: biochemical; conditions: measured for fluorescence with porcine pancreatic PLA2 (group I); read-out: Anti-PLA2 activity IC50 PPLA2
T2 sequence (P00592 23-146): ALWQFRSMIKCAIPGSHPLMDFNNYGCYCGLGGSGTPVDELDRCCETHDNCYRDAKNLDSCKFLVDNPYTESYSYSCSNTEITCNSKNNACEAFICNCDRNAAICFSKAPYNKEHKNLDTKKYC
Method: as §1, §2, §3, §4, §5, §6, §7, §8, §9, §10

[6] = target: T2, porcine pancreatic PLA2 (group I); assay: UV spectrophotometric anti-PLA2 assay, porcine pancreatic PLA2 (group I); format: biochemical; conditions: UV spectrophotometric method, read-out: Anti-PLA2 activity IC50 PPLA2 spectro
Method: as §1, §2, §3
The UV spectrophotometric analysis was performed on an ELx 808 Ultra Micro Plate Reader apparatus (96-well plate). […]
as §11, §12

[7] = tested on: carrageenan-induced edema; assay: Carrageenan-induced edema test in rats; format: in vivo; conditions: dose of 10 mg/kg
Method: An in vivo activity assay was performed by a carrageenan-induced edema test in rats.
In the experimental protocol conducted, indomethacin as the reference product, or the compound No. 5, was administered intraperitoneally or orally at one hour before the injection of carrageenan into the hind leg of the rats. The volume of edema was measured at 0, 3 and 5 hours after the injection of carrageenan. The doses used were 5, 10 and 20 mg/kg for the two products tested.

Compound	IC50 [2] [nM]	IC50 [5] [nM]	further results
1-[4′-(4,5-dihydro-1,2,4(4H)-5-oxo-oxadiazol-3-ylmethyl)benzoyl]-4-dodecylpiperazine [PMS 1314]			Edema inhibition (%) ([1]; 1 mg/ear): 28.5 ± 6.85%
1-[4′-(4,5-dihydro-1,2,4(4H)-5-oxo-oxadiazol-3-ylmethyl)benzyl]-4-tetradecylpiperazine [Compound 2]	> 10000		Edema inhibition (%) ([1]; 1 mg/ear, listed as PMS 1227): 51.45 ± 11.67%
1-[4′-(4,5-dihydro-1,2,4(4H)-5-oxo-oxadiazol-3-ylmethyl)benzyl]-4-tetradecylpiperazine [PMS 1281]			Edema inhibition (%) ([1]; 1 mg/ear): 47.83 ± 12.34%
CCCCCCCCCCCCCCCCCCN1CCN(C(=O)c2ccc(Cc3noc(=O)[nH]3)cc2)CC1 [Compound 6, 1-[4′-(4,5-dihydro-1,2,4(4H)-5-oxo-oxadiazol-3-ylmethyl)benzoyl]-4-octadecylpiperazine]	800		IC50 [3]: 1500 nM; IC50 [4]: 2000 nM
CCCCCCCCCCCCCCCCCCN1CCN(c2ccc(Cc3noc(=O)[nH]3)cc2)CC1 [Compound 10, 1-[4′-(4,5-dihydro-1,2,4(4H)-5-oxo-oxadiazol-3-ylmethyl)phenyl]-4-octadecylpiperazine]	2710	> 100000	
CCCCCCCCCCCCN1CC(C)N(C(=O)c2ccc(Cc3noc(=O)[nH]3)cc2)CC1C (centres unmarked) [Compound 13, 1-[4′-(4,5-dihydro-1,2,4(4H)-5-oxo-oxadiazol-3-ylmethyl)benzoyl]-2,5-dimethyl-4-dodecylpiperazine]		> 100000	Edema inhibition (%) ([1]; 1 mg/ear): 62.79 ± 3.23%
CCCCCCCCCCCCCCCCCCN1CCN(C(=O)c2ccc(C=C3SC(=O)NC3=O)cc2)CC1 [Compound 14, [4-(4′-octadecylpiperazine-1′-ylcarbonyl)benzylidene]-1,3-thiazolidine-2,4-dione]	280	10000	IC50 [3]: 400 nM; IC50 [4]: 400 nM; IC50 [6]: > 100000 nM
CCCCCCCCCCCCCCCCCCN1CCN(C(=O)c2ccc(CC3SC(=O)NC3=O)cc2)CC1 (centres unmarked) [Compound 15, 1-[4′-(2,4-dioxo-1,3-thiazolidin-5-ylmethyl)benzoyl]-4-octadecylpiperazine]	1000	> 100000	IC50 [3]: 1400 nM; IC50 [4]: 2000 nM
CCCCCCCCCCCCCCN1CCN(Cc2ccc(Cc3noc(=O)[nH]3)cc2)C(=O)C1 [Example 7, 1-[4′-(4,5-dihydro-1,2,4(4H)-5-oxo-oxadiazol-3-ylmethyl)benzyl]-4-tetradecylpiperazin-2-one]	30000	> 100000	
CCCCCCCCCCCCCCN1CCN(C(=O)c2ccc(Cc3noc(=O)[nH]3)cc2)CC1 [Example 8, 1-[4′-(4,5-dihydro-1,2,4(4H)-5-oxo-oxadiazol-3-ylmethyl)benzoyl]-4-tetradecylpiperazine]	18700	> 100000	
CCCCCCCCCCCCCCN1CCN(C(=O)c2ccc(CCCc3noc(=O)[nH]3)cc2)CC1 [Example 9, 1-[4′-(4,5-dihydro-1,2,4(4H)-5-oxo-oxadiazol-3-ylpropyl)benzoyl]-4-tetradecylpiperazine]	5300	> 100000	
COc1ccc2c(c1)c(CC(=O)O)c(C)n2C(=O)c1ccc(Cl)cc1 [Indomethacin, indomethacin]			Edema inhibition (%) ([1]; 0.5 mg/ear): 43.11 ± 8.79%; inhibition of edema ([7]; intraperitoneal route, given one hour before carrageenan): 79%; inhibition of edema ([7]; oral route, at 5 hours after the injection of carrageenan): 16%
